Source: patent US20210015793A1, “COMPOUNDS FOR TREATING CNS- AND NEURODEGENERATIVE DISEASES” (ETH ZURICH, priority 2018, published 2021)

Experiments:
Tg-TauP301L mice = test: Hippocampal PHF Tau hyperphosphorylation (AT8) in Tg-TauP301L model of tauopathy; assay type: in vivo, mouse; settings: 12 months-old Tg-TauP301L mice treated for 6 months
Source text: For a genetic model of familial AD (FAD), Tg2576 mice (Taconic Biosciences, Rensselaer, N.Y., USA) were used with neuron-specific overexpression of human APPSwe, i.e the Swedish mutation of APP695 isolated from a Swedish family with FAD featuring the double mutation K670N/M671L (Hsiao et al., Science 274, 99-103 (1996)). As a genetic model of tauopathy, the Tg-TauP301L mice (Model 2508, Taconic Biosciences, Rensselaer, N.Y., USA) with neuron-specific expression of the most common FTDP-17 (frontotemporal dementia and parkinsonism linked to chromosome 17) mutation (Lewis et al., Nature Genetics 25, 402-405 (2000)) were used. To enhance neurodegeneration and neuronal loss, the CUMS (chronic unpredictable mild stress) protocol was performed with male 12 months-old Tg2576 mice for 3 months essentially as described (AbdAlla et al., J. Biol. Chem. 284, 6554-6565 (2009); AbdAlla et al., J. Biol. Chem. 284, 6566-6574 (2009)). […]
Similarly, hyperphosphorylated Tau was detected with AT8 antibody on paraffin-embedded brain sections from 12 months-old Tg-TauP301L mice (Model 2508, Taconic Biosciences, Rensselaer, N.Y., USA) without and with treatment with Compound-1 and Compound-4 for 6 months. […]

[1] = system: rats subjected to the CUMS protocol; test: Immunoblot detection of hippocampal PHF-Tau (AT8) in aged rats subjected to CUMS; assay type: in vivo, rat; settings: 16 months-old rats, CUMS for 4 weeks, oral treatment 8 mg/kg/d
Description: As a model for reproducing major features of sporadic AD and depression, 15 months-old male rats were […] according to the CUMS protocol for 4 weeks. The following stimuli were administered each week in a random order: two periods (7 h and 17 h) of 45° cage tilt; soaked cage for 17 h; food deprivation (24 h) and water deprivation (12 h), twice a week; paired housing (17 h); overnight illumination during the dark phase, twice a week; noise (85 dB) in the room for 5 h, twice a week; flashing light (60 flashes/min) for 6 h, three times a week (AbdAlla et al., Biomed. Res. Int. 2015:917156 (2015); El-faramawy et al., Pharmacol. Biochem. Behav. 91, 339-344 (2009)). The sucrose preference test (2% sucrose in water) was done immediately after a period of food and water deprivation. […]
For immunoblot detection of PHF-Tau in the hippocampus of aged 16 month-old rats subjected to the CUMS protocol for 4 weeks, hippocampi were dissected out from isolated brains on ice, pulverized under liquid nitrogen, and proteins were extracted with guanidine-hydrochloride (6.25 M guanidine hydrochloride in 50 mM Tris, pH 8.0 supplemented with 1× protease inhibitors and 1× phosphatase inhibitors) for 30 min at 4° C. […] For quantitative analysis, quantitative immunoblot evaluation was performed. To control for equal protein loading, the total content of hippocampal Gnb was determined. […]

## O=C(C1=C(O)C(c2ccccc2)N(c2ccc3c(c2)OCO3)C1=O)C1CC1 (stereo not drawn) [Compound-1, 1-(1,3-benzodioxol-5-yl)-4-(cyclopropane-carbonyl)-3-hydroxy-2-phenyl-2H-pyrrol-5-one]
Tg-TauP301L mice
  hippocampal content of hyperphosphorylated PHF-Tau (quantitative, [125I]-AT8 binding): significantly decreased hippocampal content of hyperphosphorylated PHF-Tau
Tg-TauP301L mice; 8 mg/kg/d in drinking water
  PHF Tau hyperphosphorylation in hippocampal CA3 area (immunohistology): largely absent
[1]
  hippocampal PHF Tau hyperphosphorylation (immunoblot AT8): retard PHF Tau hyperphosphorylation
